Results: the Deep4Chem optical property database
Values belong to the compound of their own block, whether it stands above or below them.

Experiment: solvent given as SMILES

absorption maximum (in CCCCCC): 305 nm
Structure (SMILES): C/C=C/c1ccc(OC)cc1

absorption maximum (in CCO): 442 nm
Structure (SMILES): CNc1cc2nc3cc(Cl)c(Cl)cc3nc2cc1NC

absorption maximum (in C1CCOC1): 411 nm
Structure (SMILES): O=P(c1c2ccccc2cc2ccccc12)(c1c2ccccc2cc2ccccc12)c1c2ccccc2cc2ccccc12

absorption maximum (in c1ccccc1): 372 nm
Structure (SMILES): COc1ccc(-c2nc3ccccc3oc2=O)cc1

absorption maximum (in ClCCl): 454 nm
Structure (SMILES): CCCCN(CCCC)c1ccc2c#cc3cc4c#cc5ccc(N(CCCC)CCCC)cc5c#cc#cc5cc(C(F)(F)F)ccc5c#cc4cc3c#cc3ccc(C(F)(F)F)cc3c#cc#cc2c1

absorption maximum (in C1CCCCC1): 435 nm
absorption maximum (in ClC(Cl)Cl): 438.5 nm
absorption maximum (in ClCCl): 438 nm
Structure (SMILES): c1cc2cccc3c4cccc5cccc(c(c1)c23)c54

absorption maximum (in ClCCl): 317 nm
Structure (SMILES): C(=C\c1cc(/C=C/c2ccccc2)cc(/C=C/c2ccccc2)c1)/c1ccccc1

absorption maximum (in C1COCCO1): 250 nm
Structure (SMILES): c1ccc(-c2cc(-c3ccccc3)cc(-c3ccccc3)c2)cc1

absorption maximum (in CCO): 590 nm
absorption maximum (in O): 590 nm
Structure (SMILES): CC/[NH+]=c1\cc2oc3cc(NCCN)c4ccccc4c3nc-2cc1C

absorption maximum (in CC#N): 392 nm
absorption maximum (in CO): 388 nm
Structure (SMILES): CC(=O)c1ccc(/C=C/C=C/C2=NC3C(=O)NC(N)=NC3N2[C@H]2C[C@H](O)[C@@H](CO)O2)cc1 (some centres undefined)

absorption maximum (in C1CCCCC1): 332 nm
Structure (SMILES): CCC(C)(C)c1ccc2c(c1)C(CCOC)(CCOC)c1cc(-c3ccc(-c4ccc5c(c4)C(CCOC)(CCOC)c4cc(C(C)(C)CC)ccc4-5)cc3)ccc1-2

absorption maximum (in C1CCOC1): 382 nm
Structure (SMILES): CCC1(CC)c2ccccc2-c2c1c1c(c3c2C(CC)(CC)c2cc(/C=C/c4cccs4)ccc2-3)C(CC)(CC)c2ccccc2-1

absorption maximum (in C1COCCO1): 354 nm
absorption maximum (in CC#N): 352 nm
absorption maximum (in CO): 342 nm
Structure (SMILES): COc1ccc(/C=C/C=C/C2=NC3C(=O)NC(N)=NC3N2[C@H]2C[C@H](O)[C@@H](CO)O2)cc1 (some centres undefined)

absorption maximum (in C1CCOC1): 360 nm
Structure (SMILES): F[B-]1(F)OC(c2ccccc2)=C(c2ccccc2)c2sc3ccccc3[n+]21

absorption maximum (in ClCCl): 352 nm
Structure (SMILES): CN(C)c1ccc(C#Cc2ccc(-c3cc(N(C)C)c4ccccc4c3)cc2)cc1

absorption maximum (in ClC(Cl)Cl): 679 nm
absorption maximum (in ClCCl): 679 nm
Structure (SMILES): COc1ccc(C2=[N+]3C(=Nc4c(-c5ccccc5)c(Br)c(-c5ccc(OC)cc5)n4[B-]3(F)F)C(c3ccccc3)=C2Br)cc1

absorption maximum (in ClC(Cl)Cl): 327 nm
Structure (SMILES): CCCCCCCCC1(CCCCCCCC)c2cc(-c3ccccc3)ccc2-c2ccc(-c3ccccc3)cc21

absorption maximum (in ClC(Cl)Cl): 640 nm
Structure (SMILES): CCCCCCCCCCCCOc1cc2c3c(ccc4c5c(NC6CCCCC6)cc6c7c(ccc(c1c34)c75)C(=O)N(C1CCCCC1)C6=O)C(=O)N(C1CCCCC1)C2=O

absorption maximum (in CC#N): 314 nm
absorption maximum (in CO): 313 nm
absorption maximum (in O): 309 nm
Structure (SMILES): CN1CCN(CCCN2c3ccccc3Sc3ccc(Cl)cc32)CC1

absorption maximum (in ClCCl): 447 nm
Structure (SMILES): CCCCC(CC)Cn1c2cc(C#N)ccc2c2ccc(C#Cc3ccc4ccc5c(C#Cc6ccc7c8ccc(C#N)cc8n(CC(CC)CCCC)c7c6)cc(C#Cc6ccc7c8ccc(C#N)cc8n(CC(CC)CCCC)c7c6)c6ccc3c4c56)cc21 (centres undefined)

absorption maximum (in ClC(Cl)Cl): 432 nm
Structure (SMILES): CCCN1c2ccccc2Sc2cc(/C=C\c3cc(=O)oc4cc(C)c(Cl)cc34)ccc21

absorption maximum (in ClCCl): 393 nm
Structure (SMILES): CN(C)c1ccc(/C=C/c2ccncn2)cc1

absorption maximum (in O): 649 nm
Structure (SMILES): COc1ccc(C2=C3C=CC(=[N+](C)C)C=C3[Si](C)(C)c3cc(N(C)C)ccc32)c(OC)c1

absorption maximum (in CO): 329 nm
absorption maximum (in ClCCl): 335 nm
Structure (SMILES): O=[N+]([O-])c1ccc(C#Cc2ccc([N+](=O)[O-])cc2)cc1

absorption maximum (in ClCCl): 300 nm
Structure (SMILES): O=P(c1ccccc1)(c1ccccc1)c1ccc(-n2c(-c3ccccc3P(=O)(c3ccccc3)c3ccccc3)nc3ccccc32)cc1

absorption maximum (in CCO): 393 nm
Structure (SMILES): CCN(CC)c1cc2sc3cc(N(CC)CC)c(F)cc3c(=O)c2cc1F

Continued, compound first:

Structure (SMILES): O=c1c(Nc2ccccc2)c([O-])c1=[NH+]c1ccccc1
absorption maximum (in C1CCOC1): 401 nm
absorption maximum (in CC#N): 390 nm
absorption maximum (in CC(C)=O): 398 nm
absorption maximum (in CCO): 393 nm
absorption maximum (in CCOCC): 400 nm
absorption maximum (in CN1CCCC1=O): 393 nm
absorption maximum (in CN(C)C=O): 393 nm
absorption maximum (in CO): 390 nm
absorption maximum (in CS(C)=O): 378 nm
absorption maximum (in O): 374 nm

Structure (SMILES): COc1cc(OC)cc(C2=[O+][B-](F)(F)OC(c3ccc4cc(OC)ccc4c3)=C2)c1
absorption maximum (in ClCCl): 427 nm

Structure (SMILES): COCCOCCOCCOCC(COCCOCCOCCOC)Oc1cc(/C=C/c2ccc(/C=C(\C#N)c3ccc(C(F)(F)F)cc3)cc2)c(OC(COCCOCCOCCOC)COCCOCCOCCOC)cc1/C=C/c1ccc(/C=C(\C#N)c2ccc(C(F)(F)F)cc2)cc1
absorption maximum (in ClCCl): 439 nm

Structure (SMILES): COc1ccc(-c2csc(/C(C#N)=C/c3ccc([N+](=O)[O-])cc3)n2)cc1
absorption maximum (in CC#N): 399 nm

Structure (SMILES): CCOC(=O)c1cc(C(=O)OCC)c2cc(C(=O)O)ccc2n1
absorption maximum (in CCO): 316 nm

Structure (SMILES): CC(C)(C)c1ccc(C2=c3sc4ccccc4c3=[N+]3C2=Nc2c(-c4ccc(C(C)(C)C)cc4)c4sc5ccccc5c4n2[B-]3(F)F)cc1
absorption maximum (in C1CCOC1): 709 nm
absorption maximum (in Cc1ccccc1): 715 nm
absorption maximum (in ClC(Cl)Cl): 711 nm

Structure (SMILES): COc1cc(C=O)cc(-c2[nH]c(=O)n3c2-c2ccccc2C3=O)c1O
absorption maximum (in CC#N): 390 nm
absorption maximum (in CO): 398 nm
absorption maximum (in ClCCl): 390 nm

Structure (SMILES): COc1ccc(-c2ccc(-c3ccc(F)cc3)cc2)cc1
absorption maximum (in C1COCCO1): 291 nm

Structure (SMILES): N#Cc1ccc(N)c(/C=C/C(F)(F)F)c1
absorption maximum (in C1CCOC1): 348 nm

Structure (SMILES): CN(C)c1ccc2nc(-c3ccc(C(=O)OC(C)(C)C)cc3)sc2c1
absorption maximum (in C1CCCCC1): 384 nm
absorption maximum (in CC#N): 390 nm
absorption maximum (in CC(C)O): 392 nm
absorption maximum (in CO): 393 nm
absorption maximum (in CS(C)=O): 403 nm
absorption maximum (in ClC(Cl)Cl): 392 nm
absorption maximum (in c1ccccc1): 392 nm

Structure (SMILES): CC(C)(C)c1cc2ccc3c(-c4ccc(N(c5ccccc5)c5ccccc5)cc4)ccc4c5nc6cc(C#N)c(C#N)cc6nc5c(c1)c2c34
absorption maximum (in Cc1ccccc1): 500 nm

Structure (SMILES): F[B-]1(F)n2c(/C=C/c3ccc(C(=C(c4ccccc4)c4ccccc4)c4ccccc4)cc3)ccc2C(c2ccccc2)=C2C=CC(/C=C/c3ccc(C(=C(c4ccccc4)c4ccccc4)c4ccccc4)cc3)=[N+]21
absorption maximum (in C1CCOC1): 665 nm

Structure (SMILES): Cc1ccc(-c2cc(-c3ccccc3)c3c(N)nc(N4CCCC4)c(C#N)c3n2)cc1
absorption maximum (in CC#N): 412 nm
absorption maximum (in CC(C)=O): 414 nm
absorption maximum (in CC(C)O): 414 nm
absorption maximum (in CO): 414 nm
absorption maximum (in ClC(Cl)Cl): 420 nm
absorption maximum (in ClCCl): 420 nm
absorption maximum (in c1ccccc1): 424 nm

Structure (SMILES): CCC1=C(C2=C(C3=C(CC)S(=O)(=O)c4cc(-c5ccccc5)ccc43)C(F)(F)C(F)(F)C2(F)F)c2ccc(-c3ccccc3)cc2S1(=O)=O
absorption maximum (in C1COCCO1): 336 nm

Structure (SMILES): O=Cc1cc(O)ccc1O
absorption maximum (in C1CCOC1): 366 nm
absorption maximum (in C1COCCO1): 363 nm
absorption maximum (in CC#N): 362 nm
absorption maximum (in CC(C)=O): 364 nm
absorption maximum (in CCCO): 367 nm
absorption maximum (in CCO): 367 nm
absorption maximum (in CN(C)C=O): 365 nm
absorption maximum (in CN(C)P(=O)(N(C)C)N(C)C): 369 nm
absorption maximum (in CNC=O): 358 nm
absorption maximum (in CO): 364 nm
absorption maximum (in CS(C)=O): 366 nm
absorption maximum (in ClC(Cl)Cl): 362 nm
absorption maximum (in NC=O): 363 nm

Structure (SMILES): CC1(C)c2ccccc2N(c2cc[n+]3c(c2)-c2ccccc2O[B-]3(F)F)c2ccccc21
absorption maximum (in Cc1ccccc1): 358 nm

Structure (SMILES): COc1cc(OC)cc(C2=C(c3cc(OC)c(OC)c(OC)c3)C3=Nc4c(-c5cc(OC)c(OC)c(OC)c5)c(-c5cc(OC)cc(OC)c5)c(-c5ccc(C(C)(C)C)cc5)n4[B-](F)(F)[N+]3=C2c2ccc(C(C)(C)C)cc2)c1
absorption maximum (in Cc1ccccc1): 674 nm

Structure (SMILES): CCOC(=O)C1=C(C)NC2=C(C(=O)c3ccccc32)C1c1ccc(N(C)C)cc1 (centres undefined)
absorption maximum (in C1CCOC1): 374 nm
absorption maximum (in C1COCCO1): 373 nm
absorption maximum (in CC#N): 379 nm
absorption maximum (in CCO): 395 nm
absorption maximum (in CN(C)C=O): 385 nm
absorption maximum (in CO): 389 nm
absorption maximum (in CS(C)=O): 400 nm
absorption maximum (in ClC(Cl)(Cl)Cl): 371 nm
absorption maximum (in ClC(Cl)Cl): 383 nm
absorption maximum (in ClCCl): 387 nm

Structure (SMILES): c1ccc(-c2c3ccccc3c(-c3ccc4ccccc4c3)c3ccccc23)nc1
absorption maximum (in ClCCl): 375 nm

Structure (SMILES): c1ccc(-c2nc(-c3ccccc3)nc(-c3ccc(-n4c5ccccc5c5cc(-c6ccc7oc8ccccc8c7c6)ccc54)cc3)n2)cc1
absorption maximum (in Cc1ccccc1): 370 nm

Structure (SMILES): CCCC1=Cc2nc1ccc1[nH]c(cc1CCO)c1nc(ccc3[nH]c2cc3CCC)C(CCO)=C1
absorption maximum (in Cc1ccccc1): 638 nm

Structure (SMILES): CN(C)c1ccc2nc(-c3ccc(C(=O)O)cc3)sc2c1
absorption maximum (in C1CCCCC1): 387 nm
absorption maximum (in CC#N): 390 nm
absorption maximum (in CC(C)O): 374 nm
absorption maximum (in CO): 377 nm
absorption maximum (in CS(C)=O): 400 nm
absorption maximum (in ClC(Cl)Cl): 400 nm
absorption maximum (in c1ccccc1): 394 nm

Structure (SMILES): CC(C)(C)c1ccc2c(c1)c1cc(C(C)(C)C)ccc1n2-c1ccccc1-c1nc(-c2ccccc2P(=O)(c2ccccc2)c2ccccc2)nc(-c2ccccc2P(=O)(c2ccccc2)c2ccccc2)n1
absorption maximum (in C1CCOC1): 343.56 nm
absorption maximum (in CC#N): 347.54 nm
absorption maximum (in CC(C)=O): 343.88 nm
absorption maximum (in CN(C)C=O): 345.95 nm
absorption maximum (in Cc1ccccc1): 320.35 nm
absorption maximum (in ClC(Cl)Cl): 342.93 nm
absorption maximum (in ClCCl): 341.49 nm

Structure (SMILES): CC1=[N+]2C(=C(c3cccs3)c3ccc(C)n3[B-]2(F)F)C=C1c1cc2n(c1)[B-](F)(F)[N+]1=CC=CC1=C2c1c(C)cc(C)cc1C
absorption maximum (in C1CCCCC1): 608.5 nm
absorption maximum (in CCOC(C)=O): 605 nm

Structure (SMILES): COc1ccc(C(=Cc2ccc(/C=C(\C#N)c3ccccc3)cc2)c2ccc(OC)cc2)cc1
absorption maximum (in C1CCOC1): 388 nm

Structure (SMILES): CC1=[N+]2C(=C(c3ccc(-c4c5ccccc5c(-c5ccccc5)c5ccccc45)cc3)c3ccc(C)n3[B-]2(F)F)C=C1
absorption maximum (in CC#N): 508 nm
absorption maximum (in CCCCCC): 512 nm
absorption maximum (in CCO): 511 nm
absorption maximum (in CN(C)C=O): 512 nm
absorption maximum (in Cc1ccccc1): 516 nm
absorption maximum (in ClCCl): 513 nm

Structure (SMILES): O=P1(c2ccccc2)C2=C(c3ccccc31)C(c1ccccc1)(c1ccccc1)c1cc(N(c3ccccc3)c3ccccc3)ccc12 (centres undefined)
absorption maximum (in CC#N): 427 nm
absorption maximum (in CO): 438 nm
absorption maximum (in Cc1ccccc1): 431 nm
